According to US8697888B2, “Substituted (1-(methylsulfonyl)azetidin-3-yl)(heterocycloalkyl)methanone analogs as antagonists of muscarinic acetylcholine M1 receptors” (Vanderbilt University, priority 2012, dated 2014):

Molecular target: T1, mAChR M1 (UniProt P11229)
T1 sequence (P11229 1-460): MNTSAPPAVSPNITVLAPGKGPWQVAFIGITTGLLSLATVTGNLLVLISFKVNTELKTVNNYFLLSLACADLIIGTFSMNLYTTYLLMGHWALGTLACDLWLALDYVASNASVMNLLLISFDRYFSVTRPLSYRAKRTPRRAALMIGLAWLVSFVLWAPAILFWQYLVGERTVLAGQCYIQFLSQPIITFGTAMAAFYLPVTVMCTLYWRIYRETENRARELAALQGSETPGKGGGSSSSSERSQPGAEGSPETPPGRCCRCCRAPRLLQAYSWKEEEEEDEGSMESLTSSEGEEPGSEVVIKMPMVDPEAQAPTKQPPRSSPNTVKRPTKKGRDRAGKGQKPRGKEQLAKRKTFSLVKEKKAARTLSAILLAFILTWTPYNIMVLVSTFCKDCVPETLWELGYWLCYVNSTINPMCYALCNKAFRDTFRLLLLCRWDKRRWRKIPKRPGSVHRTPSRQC
Assay: mAChR M1 cell-based functional assay (calcium mobilization, antagonist mode)
Details: for IC50: concentration of antagonist decreasing calcium flux by 50%, EC80 acetylcholine response, CHO-K1 cells expressing mAChR M1, read-out: Potency (IC50)
From the text: Chinese hamster ovary (CHO-K1) cells stably expressing rat (r)M1 were purchased from the American Type Culture Collection and cultured according to their indicated protocol. CHO cells stably expressing human (h)M2, hM3, and hM5 were described previously (Levey, et al., 1991); hM1 and hM4 cDNAs were purchased from Missouri S&T cDNA Resource; rM4 cDNA was provided by T. I. Bonner (National Institutes of Health, Bethesda, Md.). rM2 and rM3 were cloned from a rat brain cDNA library and sequence verified. hM1, rM2, rM3, hM4, and rM4 cDNAs were used to stably transfect CHO-K1 cells purchased from the American Type Culture Collection using Lipofectamine-2000. To make stable rM2, hM2, rM3, hM4, and rM4 cell lines for use in calcium mobilization assays, these cells also were stably transfected with a chimeric G-protein (Gqi5) (provided by B. R. Conklin, University of California, San Francisco) using Lipofectamine 2000. rM1, hM1, rM3, hM3, rM5, and hM5 cells were grown in Ham's F-12 medium containing 10% heat-inactivated fetal bovine serum (FBS), 20 mM HEPES, and 50 μg/mL G418 sulfate. rM2-Gqi5, hM2-Gqi5, and hM4-Gqi5 cells were grown in the same medium also containing 500 μg/mL Hygromycin B. Stable rM4-Gqi5 cells were grown in DMEM containing 10% heat-inactivated FBS, 20 mM HEPES, 400 μg/mL G418 sulfate, and […].
For high throughput measurement of antagonist inhibited increases in intracellular calcium, CHO-K1 cells stably expressing muscarinic receptors were plated in growth medium lacking G418 and hygromycin at 15,000 cells/20 μL/well in Greiner 384-well black-walled, tissue culture (TC)-treated, clear-bottom plates (VWR). Cells were incubated overnight at 37° C. and 5% CO2. The next day, cells were washed using an ELX 405 (BioTek) with four washes (80 μL) of assay buffer then aspirated to 20 μL. Next, 20 μL of 16 μM Fluo-4/acetoxymethyl ester (Invitrogen, Carlsbad, Calif.) prepared as a 2.3 mM stock in DMSO and mixed in a 1:1 ratio with 10% (w/v) Pluronic F-127 and diluted in assay buffer was added to the wells and the cell plates were incubated for 50 min at 37° C. and 5% CO2. Dye was removed by washing with the ELX 405 (four 80 μL washes of assay buffer) then aspirated to 20 μL. Compound master plates were formatted in an 11 point CRC format (1:3 dilutions) in 100% DMSO with a starting concentration of 10 mM using the BRAVO liquid handler (Agilent). Test compound CRCs were then transferred to daughter plates (240 nL) using the Echo acoustic plate reformatter (Labcyte, Sunnyvale, Calif.) and then diluted into assay buffer (40 μL) to a 2× stock using a Thermo Fisher Combi (Thermo Fisher Scientific, Waltham, Mass.).
Calcium flux was measured using the Functional Drug Screening System (FDSS) 6000 (Hamamatsu Corporation, Tokyo, Japan) as an increase in the fluorescent static ratio. Compounds were applied to cells (20 μL, 2×) using the automated system of the FDSS 6000 at 4 s into the 300 s protocol and the data were collected at 1 Hz. At 144 s into the 300 s protocol, 10 μL of an EC20 concentration of the muscarinic receptor agonist acetylcholine was added (5×), followed by the addition of 12 μL an EC80 concentration of acetylcholine at the 230 s time point (5×). Agonist activity was analyzed as a concentration-dependent increase in calcium mobilization upon compound addition. Positive allosteric modulator activity was analyzed as a concentration-dependent increase in the EC20 acetylcholine response. Antagonist activity was analyzed as a concentration-dependent decrease in the EC80 acetylcholine response. Concentration-response curves were generated using a four-parameter logistical equation in XLfit curve fitting software (IDBS, Bridgewater, N.J.) for Excel (Microsoft, Redmond, Wash.) or Prism (GraphPad Software, Inc., San Diego, Calif.).
The calcium mobilization assay was used to determine “potency”.

[1] = activity remaining at top dose of 30 μM test compound, as percentage of the response to an approx. EC80 concentration of ACh
[2] = dash = baseline or about zero remaining activity (table footnote)

Structure (SMILES)	Remaining Activity (%) [1]	IC50 [µM]	Remaining Activity (%) [2]
Cn1cc(S(=O)(=O)N2CC(C(=O)N3CC4CN(c5ccncc5)CC4C3)C2)cn1 (stereo not shown) [B83]	≧80%	> 10	–
O=C(C1CN(S(=O)(=O)c2cccc3cnccc23)C1)N1CCN(c2ccncc2)CC1 [B1]	–	–	— (Unless otherwise indicated with a numerical value, the percent remaining activity is baseline or about zero, i.e. as indicated by “—”)
O=C(C1CN(S(=O)(=O)c2ccc3ccccc3c2)C1)N1CCN(c2ccncc2)CC1 [B77]	≧80%	> 10	–
O=C(C1CN(S(=O)(=O)C2CCOCC2)C1)N1CCN(c2ccncc2)CC1 [B81]	≧80%	> 10	–
O=C(C1CN(S(=O)(=O)c2cccc(Cl)c2Cl)C1)N1CCN(c2ccncc2)CC1 [B16]	–	0.62	— (Unless otherwise indicated with a numerical value, the percent remaining activity is baseline or about zero, i.e. as indicated by “—”)
O=C(C1CN(S(=O)(=O)c2ccc(N3CCOCC3)nc2)C1)N1CCN(c2ccncc2)CC1 [B74]	≧80%	> 10	–
CC(C)(C)CS(=O)(=O)N1CC(C(=O)N2CCN(c3ccncc3)CC2)C1 [B43]	43%	> 10	–
O=C(C1CN(S(=O)(=O)c2cccnc2)C1)N1CCN(c2ccncc2)CC1 [B10]	–	0.35	— (Unless otherwise indicated with a numerical value, the percent remaining activity is baseline or about zero, i.e. as indicated by “—”)
Cc1cc(N2CCN(C(=O)C3CN(S(=O)(=O)c4cccc5cnccc45)C3)CC2)cc(C)n1 [B14]	–	0.46	— (Unless otherwise indicated with a numerical value, the percent remaining activity is baseline or about zero, i.e. as indicated by “—”)
O=C(C1CN(S(=O)(=O)c2cccc3nsnc23)C1)N1CCN(c2ccncc2)CC1 [B28]	–	2.2	— (Unless otherwise indicated with a numerical value, the percent remaining activity is baseline or about zero, i.e. as indicated by “—”)
O=C(C1CN(S(=O)(=O)c2cccc3c2OCCO3)C1)N1CCN(c2ccncc2)CC1 [B45]	27%	> 10	–
Cc1nc(-c2cccc(S(=O)(=O)N3CC(C(=O)N4CCN(c5ccncc5)CC4)C3)c2)no1 [B71]	≧80%	> 10	–
O=C(C1CN(S(=O)(=O)c2ccc3[nH]c(=O)sc3c2)C1)N1CCN(c2ccncc2)CC1 [B70]	≧80%	> 10	–
CC(C)S(=O)(=O)N1CC(C(=O)N2CCN(c3ccncc3)CC2)C1 [B44]	59%	> 10	–
Cc1cnccc1N1CCN(C(=O)C2CN(S(=O)(=O)c3cccc4cnccc34)C2)CC1 [B13]	–	0.39	— (Unless otherwise indicated with a numerical value, the percent remaining activity is baseline or about zero, i.e. as indicated by “—”)
O=C(C1CN(S(=O)(=O)c2cccc3cnccc23)C1)N1CCN(c2ccnc(Cl)c2)CC1 [B2]	–	0.048	— (Unless otherwise indicated with a numerical value, the percent remaining activity is baseline or about zero, i.e. as indicated by “—”)
COc1ccc(S(=O)(=O)N2CC(C(=O)N3CCN(c4ccncc4)CC3)C2)cn1 [B38]	23%	> 10	–

Structure (SMILES)	Remaining Activity (%) [1]	IC50 [µM]	Remaining Activity (%) [2]
O=C(C1CN(S(=O)(=O)c2cccc3ncccc23)C1)N1CC2CN(c3ccncc3)CC2C1 (stereo not shown) [B52]	–	3.5	— (Unless otherwise indicated with a numerical value, the percent remaining activity is baseline or about zero, i.e. as indicated by “—”)
O=C(C1CN(S(=O)(=O)c2ccc(OC(F)F)cc2)C1)N1CCN(c2ccncc2)CC1 [B63]	≧80%	> 10	–
CC(C)S(=O)(=O)N1CC(C(=O)N2CC3CN(c4ccncc4)CC3C2)C1 (stereo not shown) [B84]	≧80%	> 10	–
Cn1cc(S(=O)(=O)N2CC(C(=O)N3CCN(c4ccncc4)CC3)C2)cn1 [B18]	–	0.74	— (Unless otherwise indicated with a numerical value, the percent remaining activity is baseline or about zero, i.e. as indicated by “—”)
O=C(C1CN(S(=O)(=O)c2cccc3cnccc23)C1)N1CCN(c2ccncn2)CC1 [B20]	–	–	— (Unless otherwise indicated with a numerical value, the percent remaining activity is baseline or about zero, i.e. as indicated by “—”)
CN1C(=O)Cc2cc(S(=O)(=O)N3CC(C(=O)N4CCN(c5ccncc5)CC4)C3)ccc21 [B49]	48%	> 10	–
Cn1cnc(S(=O)(=O)N2CC(C(=O)N3CCN(c4ccncc4)CC3)C2)c1 [B66]	≧80%	> 10	–
O=C(NC1CCN(c2ccccc2)C1)C1CN(S(=O)(=O)c2cccc3cnccc23)C1 (stereo not shown) [B82]	≧80%	> 10	–
Cc1cc(N2CCN(C(=O)C3CN(S(=O)(=O)c4cccc5cnccc45)C3)CC2)ccn1 [B6]	–	0.12	— (Unless otherwise indicated with a numerical value, the percent remaining activity is baseline or about zero, i.e. as indicated by “—”)
O=C(C1CN(S(=O)(=O)c2ccc3ncccc3c2)C1)N1CCN(c2ccncc2)CC1 [B15]	–	–	— (Unless otherwise indicated with a numerical value, the percent remaining activity is baseline or about zero, i.e. as indicated by “—”)
O=C(C1CN(S(=O)(=O)C2CCCCC2)C1)N1CCN(c2ccncc2)CC1 [B47]	50%	> 10	–
O=C(C1CN(S(=O)(=O)c2ccc3c(c2)OCO3)C1)N1CC2CN(c3ccncc3)CC2C1 (stereo not shown) [B57]	–	0.95	— (Unless otherwise indicated with a numerical value, the percent remaining activity is baseline or about zero, i.e. as indicated by “—”)
O=C(C1CN(S(=O)(=O)c2ccc(Cl)cn2)C1)N1CCN(c2ccncc2)CC1 [B42]	34%	> 10	–
O=C(C1CN(S(=O)(=O)c2cnc3ccccc3c2)C1)N1CCN(c2ccncc2)CC1 [B39]	48%	> 10	–
O=C(C1CN(S(=O)(=O)c2cccc3nonc23)C1)N1CCCN(c2ccncc2)CC1 [B32]	34%	> 10	–
O=C(C1CN(S(=O)(=O)c2cccc3cnc(Cl)cc23)C1)N1CCN(c2ccncc2)CC1 [B19]	–	0.78	— (Unless otherwise indicated with a numerical value, the percent remaining activity is baseline or about zero, i.e. as indicated by “—”)
O=C(C1CN(S(=O)(=O)c2cccc3nsnc23)C1)N1CC2CN(c3ccncc3)CC2C1 (stereo not shown) [B53]	–	–	— (Unless otherwise indicated with a numerical value, the percent remaining activity is baseline or about zero, i.e. as indicated by “—”)
